According to the supplement of paper PMC10307832:

Columns and labels:
Test in all cases: relative viability (nuclei count vs DMSO), 5 days (fraction); higher = more cells survive
COR-L 105 = test system: COR-L 105
Summary of the method: (§1)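 Cells from lung cancer lines were seeded into 1536-well plates and, one day later, dosed by pin tool. Treatments were either a single drug or a fixed dose of an anchor drug with five library-drug doses (not always all listed) in √10 steps. After 5 days, nuclei were stained in a one-step fixation (final 0.05% Triton X-100, 1% formaldehyde, 1 ug/ml Hoechst) and counted on 4× images, and relative viability is the treated-to-vehicle nuclei ratio, as the median of duplicate plates.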

HCC-78 = test system: HCC-78
Summary of the method: as §1

UMC-11 = test system: UMC-11
Summary of the method: as §1

NCI-H2405 = test system: NCI-H2405
Summary of the method: as §1

HCC-366 = test system: HCC-366
Summary of the method: as §1

NCI-H1975 = test system: NCI-H1975
Summary of the method: as §1

NCI-H1395 = test system: NCI-H1395
Summary of the method: as §1

NCI-H1437 = test system: NCI-H1437
Summary of the method: as §1

LCLC-103H = test system: LCLC-103H
Summary of the method: as §1

NCI-H358 = test system: NCI-H358
Summary of the method: as §1

EPLC-272H = test system: EPLC-272H
Summary of the method: as §1

NCI-H727 = test system: NCI-H727
Summary of the method: as §1

HCC-827 = test system: HCC-827
Summary of the method: as §1

HCC-15 = test system: HCC-15
Summary of the method: as §1

NCI-H2085 = test system: NCI-H2085
Summary of the method: as §1

NCI-H1792 = test system: NCI-H1792
Summary of the method: as §1

NCI-H661 = test system: NCI-H661
Summary of the method: as §1

NCI-H2023 = test system: NCI-H2023
Summary of the method: as §1

NCI-H1944 = test system: NCI-H1944
Summary of the method: as §1

HCC-44 = test system: HCC-44
Summary of the method: as §1

SK-LU-1 = test system: SK-LU-1
Summary of the method: as §1

COR-L23 = test system: COR-L23
Summary of the method: as §1

HARA = test system: HARA
Summary of the method: as §1

**Q.** With `Cc1cnc(-c2cnc(NCCNc3ccc(C#N)cn3)nc2-c2ccc(Cl)cc2Cl)[nH]1` + Cc1nc(NC(=O)N2CCC[C@H]2C(N)=O)sc1-c1ccnc(C(C)(C)C(F)(F)F)c1 [Alpelisib] (partner 2 µM) as the compound, how does the relative viability (COR-L 105; first compound 0.08 µM) read?
**A.** 0.994

**Q.** What about the relative viability (COR-L 105; first compound 0.253 µM) of the same compound?
**A.** 0.927

**Q.** What about the relative viability (COR-L 105; first compound 0.8 µM) of the same compound?
**A.** 1.11

**Q.** What about the relative viability (COR-L 105; first compound 2.53 µM) of the same compound?
**A.** 0.612

**Q.** What about the relative viability (HCC-78; first compound 0.08 µM) of the same compound?
**A.** 0.401

**Q.** And the relative viability (HCC-78; first compound 0.253 µM)?
**A.** 0.285

**Q.** And the relative viability (HCC-78; first compound 0.8 µM)?
**A.** 0.308

**Q.** And the relative viability (HCC-78; first compound 2.53 µM)?
**A.** 0.333

**Q.** What about the relative viability (UMC-11; first compound 0.08 µM) of the same compound?
**A.** 0.844

**Q.** And the relative viability (UMC-11; first compound 0.253 µM)?
**A.** 0.903

**Q.** What about the relative viability (UMC-11; first compound 0.8 µM) of the same compound?
**A.** 1.02

**Q.** What about the relative viability (UMC-11; first compound 2.53 µM) of the same compound?
**A.** 0.908

**Q.** What about the relative viability (NCI-H2405; first compound 0.08 µM) of the same compound?
**A.** 1.09

**Q.** And the relative viability (NCI-H2405; first compound 0.253 µM)?
**A.** 0.793

**Q.** And the relative viability (NCI-H2405; first compound 0.8 µM)?
**A.** 0.811

**Q.** And the relative viability (NCI-H2405; first compound 2.53 µM)?
**A.** 0.592

**Q.** What about the relative viability (HCC-366; first compound 0.08 µM) of the same compound?
**A.** 0.369

**Q.** What about the relative viability (HCC-366; first compound 0.253 µM) of the same compound?
**A.** 0.364

**Q.** What about the relative viability (HCC-366; first compound 0.8 µM) of the same compound?
**A.** 0.33

**Q.** What about the relative viability (HCC-366; first compound 2.53 µM) of the same compound?
**A.** 0.32

**Q.** What about the relative viability (NCI-H1975; first compound 0.08 µM) of the same compound?
**A.** 0.667

**Q.** What about the relative viability (NCI-H1975; first compound 0.253 µM) of the same compound?
**A.** 0.571

**Q.** And the relative viability (NCI-H1975; first compound 0.8 µM)?
**A.** 0.561

**Q.** What about the relative viability (NCI-H1975; first compound 2.53 µM) of the same compound?
**A.** 0.52

**Q.** And the relative viability (NCI-H1395; first compound 0.08 µM)?
**A.** 1.23

**Q.** What about the relative viability (NCI-H1395; first compound 0.253 µM) of the same compound?
**A.** 1.03

**Q.** What about the relative viability (NCI-H1395; first compound 0.8 µM) of the same compound?
**A.** 1.41

**Q.** What about the relative viability (NCI-H1395; first compound 2.53 µM) of the same compound?
**A.** 0.971

**Q.** What about the relative viability (NCI-H1437; first compound 0.08 µM) of the same compound?
**A.** 0.962

**Q.** And the relative viability (NCI-H1437; first compound 0.253 µM)?
**A.** 0.937

**Q.** What about the relative viability (NCI-H1437; first compound 0.8 µM) of the same compound?
**A.** 0.909

**Q.** What about the relative viability (NCI-H1437; first compound 2.53 µM) of the same compound?
**A.** 0.918

**Q.** What about the relative viability (LCLC-103H; first compound 0.08 µM) of the same compound?
**A.** 1.16

**Q.** What about the relative viability (LCLC-103H; first compound 0.253 µM) of the same compound?
**A.** 0.958

**Q.** And the relative viability (LCLC-103H; first compound 0.8 µM)?
**A.** 1.07

**Q.** What about the relative viability (LCLC-103H; first compound 2.53 µM) of the same compound?
**A.** 0.951

**Q.** And the relative viability (NCI-H358; first compound 0.08 µM)?
**A.** 0.955

**Q.** And the relative viability (NCI-H358; first compound 0.253 µM)?
**A.** 0.714

**Q.** What about the relative viability (NCI-H358; first compound 0.8 µM) of the same compound?
**A.** 0.843

**Q.** What about the relative viability (NCI-H358; first compound 2.53 µM) of the same compound?
**A.** 0.729

**Q.** What about the relative viability (EPLC-272H; first compound 0.08 µM) of the same compound?
**A.** 0.911

**Q.** What about the relative viability (EPLC-272H; first compound 0.253 µM) of the same compound?
**A.** 1.01

**Q.** And the relative viability (EPLC-272H; first compound 0.8 µM)?
**A.** 0.728

**Q.** What about the relative viability (EPLC-272H; first compound 2.53 µM) of the same compound?
**A.** 0.899

**Q.** What about the relative viability (NCI-H727; first compound 0.08 µM) of the same compound?
**A.** 0.505

**Q.** And the relative viability (NCI-H727; first compound 0.253 µM)?
**A.** 0.593

**Q.** What about the relative viability (NCI-H727; first compound 0.8 µM) of the same compound?
**A.** 0.566

**Q.** What about the relative viability (NCI-H727; first compound 2.53 µM) of the same compound?
**A.** 0.482

**Q.** What about the relative viability (HCC-827; first compound 0.08 µM) of the same compound?
**A.** 1.08

**Q.** What about the relative viability (HCC-827; first compound 0.8 µM) of the same compound?
**A.** 0.99

**Q.** And the relative viability (HCC-827; first compound 2.53 µM)?
**A.** 0.929

**Q.** And the relative viability (HCC-15; first compound 0.08 µM)?
**A.** 0.857

**Q.** And the relative viability (HCC-15; first compound 0.253 µM)?
**A.** 0.815

**Q.** What about the relative viability (HCC-15; first compound 0.8 µM) of the same compound?
**A.** 0.853

**Q.** And the relative viability (HCC-15; first compound 2.53 µM)?
**A.** 0.881

**Q.** What about the relative viability (NCI-H2085; first compound 0.08 µM) of the same compound?
**A.** 1.13

**Q.** What about the relative viability (NCI-H2085; first compound 0.253 µM) of the same compound?
**A.** 1.03

**Q.** And the relative viability (NCI-H2085; first compound 0.8 µM)?
**A.** 0.94

**Q.** What about the relative viability (NCI-H2085; first compound 2.53 µM) of the same compound?
**A.** 0.961

**Q.** And the relative viability (NCI-H1792; first compound 0.08 µM)?
**A.** 0.736

**Q.** And the relative viability (NCI-H1792; first compound 0.253 µM)?
**A.** 0.639

**Q.** And the relative viability (NCI-H1792; first compound 0.8 µM)?
**A.** 0.625

**Q.** What about the relative viability (NCI-H1792; first compound 2.53 µM) of the same compound?
**A.** 0.674

**Q.** And the relative viability (NCI-H661; first compound 0.08 µM)?
**A.** 0.419

**Q.** And the relative viability (NCI-H661; first compound 0.253 µM)?
**A.** 0.645

**Q.** And the relative viability (NCI-H661; first compound 0.8 µM)?
**A.** 0.76

**Q.** And the relative viability (NCI-H661; first compound 2.53 µM)?
**A.** 0.654

**Q.** What about the relative viability (NCI-H2023; first compound 0.08 µM) of the same compound?
**A.** 0.574

**Q.** And the relative viability (NCI-H2023; first compound 0.253 µM)?
**A.** 0.656

**Q.** And the relative viability (NCI-H2023; first compound 0.8 µM)?
**A.** 0.747

**Q.** What about the relative viability (NCI-H2023; first compound 2.53 µM) of the same compound?
**A.** 1.12

**Q.** What about the relative viability (NCI-H1944; first compound 0.08 µM) of the same compound?
**A.** 0.827

**Q.** What about the relative viability (NCI-H1944; first compound 0.8 µM) of the same compound?
**A.** 0.84

**Q.** What about the relative viability (NCI-H1944; first compound 2.53 µM) of the same compound?
**A.** 0.824

**Q.** And the relative viability (HCC-44; first compound 0.08 µM)?
**A.** 0.853

**Q.** And the relative viability (HCC-44; first compound 0.253 µM)?
**A.** 0.768

**Q.** What about the relative viability (HCC-44; first compound 0.8 µM) of the same compound?
**A.** 0.823

**Q.** And the relative viability (HCC-44; first compound 2.53 µM)?
**A.** 0.926

**Q.** What about the relative viability (SK-LU-1; first compound 0.08 µM) of the same compound?
**A.** 1.09

**Q.** What about the relative viability (SK-LU-1; first compound 0.253 µM) of the same compound?
**A.** 0.931

**Q.** What about the relative viability (SK-LU-1; first compound 0.8 µM) of the same compound?
**A.** 1.28

**Q.** And the relative viability (SK-LU-1; first compound 2.53 µM)?
**A.** 1.18

**Q.** And the relative viability (COR-L23; first compound 0.08 µM)?
**A.** 0.918

**Q.** What about the relative viability (COR-L23; first compound 0.253 µM) of the same compound?
**A.** 0.649

**Q.** What about the relative viability (COR-L23; first compound 0.8 µM) of the same compound?
**A.** 0.826

**Q.** And the relative viability (COR-L23; first compound 2.53 µM)?
**A.** 0.774

**Q.** What about the relative viability (HARA; first compound 0.08 µM) of the same compound?
**A.** 0.994

**Q.** What about the relative viability (HARA; first compound 0.253 µM) of the same compound?
**A.** 0.673

**Q.** And the relative viability (HARA; first compound 0.8 µM)?
**A.** 0.746

**Q.** What about the relative viability (HARA; first compound 2.53 µM) of the same compound?
**A.** 0.827
